Each block holds one compound with its values, some of them ahead of it.
Experiments:
[1] = Stability in rat liver microsomes assessed as parent compound remaining at 1 uM measured after 30 mins in presence of NADPH generating system
[2] = biological target: T1, PI3K p110 beta/p85 alpha (Homo sapiens, UniProt P42338); experiment: Inhibition of N-terminal His6-tagged recombinant full length human p110beta/untagged recombinant full length human p85alpha expressed in baculovirus infected Sf21 insect cells at 1 uM using PIP2 as substrate measured after 80 mins by transcreener fluorescence polarization assay relative to control
T1 sequence (P27986 whole entry): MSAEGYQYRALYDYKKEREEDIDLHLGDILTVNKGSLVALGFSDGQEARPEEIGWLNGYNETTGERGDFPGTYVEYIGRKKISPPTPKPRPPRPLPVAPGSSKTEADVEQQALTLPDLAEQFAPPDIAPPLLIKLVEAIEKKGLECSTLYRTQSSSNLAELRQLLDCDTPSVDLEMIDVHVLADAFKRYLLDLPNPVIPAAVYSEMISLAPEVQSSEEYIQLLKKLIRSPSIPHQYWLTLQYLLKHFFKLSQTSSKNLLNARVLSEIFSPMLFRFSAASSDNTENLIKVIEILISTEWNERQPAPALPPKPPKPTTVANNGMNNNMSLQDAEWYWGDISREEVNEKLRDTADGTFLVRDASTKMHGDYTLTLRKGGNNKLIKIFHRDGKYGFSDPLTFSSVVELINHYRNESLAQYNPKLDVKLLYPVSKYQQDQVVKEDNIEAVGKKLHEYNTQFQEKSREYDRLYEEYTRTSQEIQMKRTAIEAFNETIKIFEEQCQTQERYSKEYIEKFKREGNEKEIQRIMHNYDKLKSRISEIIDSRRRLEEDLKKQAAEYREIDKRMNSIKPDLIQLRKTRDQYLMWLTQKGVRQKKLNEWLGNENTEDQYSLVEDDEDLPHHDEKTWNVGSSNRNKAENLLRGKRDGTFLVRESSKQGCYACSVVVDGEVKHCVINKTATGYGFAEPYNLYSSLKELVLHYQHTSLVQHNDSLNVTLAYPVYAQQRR
T1 sequence (P42338 whole entry): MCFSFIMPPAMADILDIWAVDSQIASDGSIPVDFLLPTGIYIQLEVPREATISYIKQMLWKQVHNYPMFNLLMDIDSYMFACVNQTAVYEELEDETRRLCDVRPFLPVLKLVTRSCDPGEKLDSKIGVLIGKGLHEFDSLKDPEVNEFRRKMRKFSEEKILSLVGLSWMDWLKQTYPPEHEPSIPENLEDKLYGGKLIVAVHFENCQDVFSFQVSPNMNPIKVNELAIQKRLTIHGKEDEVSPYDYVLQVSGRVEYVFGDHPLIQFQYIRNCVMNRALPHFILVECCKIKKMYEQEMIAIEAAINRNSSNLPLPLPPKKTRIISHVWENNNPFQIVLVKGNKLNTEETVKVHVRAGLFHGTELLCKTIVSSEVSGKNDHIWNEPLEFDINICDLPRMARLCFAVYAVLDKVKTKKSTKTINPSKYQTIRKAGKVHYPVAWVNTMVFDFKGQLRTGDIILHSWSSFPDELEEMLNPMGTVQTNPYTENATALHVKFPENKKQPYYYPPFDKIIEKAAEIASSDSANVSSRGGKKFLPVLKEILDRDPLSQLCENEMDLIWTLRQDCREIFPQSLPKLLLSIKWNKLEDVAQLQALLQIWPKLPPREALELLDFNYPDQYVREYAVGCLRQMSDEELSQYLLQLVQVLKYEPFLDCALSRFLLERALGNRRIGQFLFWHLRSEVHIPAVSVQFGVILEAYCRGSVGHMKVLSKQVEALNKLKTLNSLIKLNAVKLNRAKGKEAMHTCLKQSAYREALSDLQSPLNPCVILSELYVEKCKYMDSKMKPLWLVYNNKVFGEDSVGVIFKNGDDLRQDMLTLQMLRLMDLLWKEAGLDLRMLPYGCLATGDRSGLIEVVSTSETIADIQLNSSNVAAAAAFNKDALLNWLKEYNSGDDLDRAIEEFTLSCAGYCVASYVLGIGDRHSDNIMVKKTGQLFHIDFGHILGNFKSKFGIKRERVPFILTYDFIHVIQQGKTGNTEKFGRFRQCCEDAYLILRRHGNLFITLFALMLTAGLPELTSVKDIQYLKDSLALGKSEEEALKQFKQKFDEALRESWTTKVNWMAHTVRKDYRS

[3] = Inhibition of PI3Kgamma in […] RAW264.7 cells assessed as reduction in C5a-stimulated AKT phosphorylation at Ser473 residue preincubated for 30 mins followed by C5a-stimulation and measured after 5 mins; assay type: cell-based
[4] = Inhibition of PI3Kdelta in rat whole blood assessed as reduction in anti-IgD-stimulated CD86 expression on B-cells preincubated for 60 mins followed by anti-IgD stimulation and measured after overnight incubation by flow cytometry; assay type: tissue-based
[5] = Stability in human liver microsomes assessed as parent compound remaining at 1 uM measured after 30 mins in presence of NADPH generating system
[6] = biological target: PI3-kinase p110-alpha/p85-alpha (Homo sapiens, UniProt P42336); experiment: Inhibition of recombinant human full-length N-terminal His-tagged PI3K p110alpha/p85alpha expressed in baculovirus expression system at 1 uM using PIP2 as substrate measured after 80 mins by transcreener fluorescence polarization assay relative to control
PI3-kinase p110-alpha/p85-alpha, sequence (P27986 whole entry, canonical isoform): as the sequence (P27986 whole entry) above
PI3-kinase p110-alpha/p85-alpha, sequence (P42336 whole entry, canonical isoform): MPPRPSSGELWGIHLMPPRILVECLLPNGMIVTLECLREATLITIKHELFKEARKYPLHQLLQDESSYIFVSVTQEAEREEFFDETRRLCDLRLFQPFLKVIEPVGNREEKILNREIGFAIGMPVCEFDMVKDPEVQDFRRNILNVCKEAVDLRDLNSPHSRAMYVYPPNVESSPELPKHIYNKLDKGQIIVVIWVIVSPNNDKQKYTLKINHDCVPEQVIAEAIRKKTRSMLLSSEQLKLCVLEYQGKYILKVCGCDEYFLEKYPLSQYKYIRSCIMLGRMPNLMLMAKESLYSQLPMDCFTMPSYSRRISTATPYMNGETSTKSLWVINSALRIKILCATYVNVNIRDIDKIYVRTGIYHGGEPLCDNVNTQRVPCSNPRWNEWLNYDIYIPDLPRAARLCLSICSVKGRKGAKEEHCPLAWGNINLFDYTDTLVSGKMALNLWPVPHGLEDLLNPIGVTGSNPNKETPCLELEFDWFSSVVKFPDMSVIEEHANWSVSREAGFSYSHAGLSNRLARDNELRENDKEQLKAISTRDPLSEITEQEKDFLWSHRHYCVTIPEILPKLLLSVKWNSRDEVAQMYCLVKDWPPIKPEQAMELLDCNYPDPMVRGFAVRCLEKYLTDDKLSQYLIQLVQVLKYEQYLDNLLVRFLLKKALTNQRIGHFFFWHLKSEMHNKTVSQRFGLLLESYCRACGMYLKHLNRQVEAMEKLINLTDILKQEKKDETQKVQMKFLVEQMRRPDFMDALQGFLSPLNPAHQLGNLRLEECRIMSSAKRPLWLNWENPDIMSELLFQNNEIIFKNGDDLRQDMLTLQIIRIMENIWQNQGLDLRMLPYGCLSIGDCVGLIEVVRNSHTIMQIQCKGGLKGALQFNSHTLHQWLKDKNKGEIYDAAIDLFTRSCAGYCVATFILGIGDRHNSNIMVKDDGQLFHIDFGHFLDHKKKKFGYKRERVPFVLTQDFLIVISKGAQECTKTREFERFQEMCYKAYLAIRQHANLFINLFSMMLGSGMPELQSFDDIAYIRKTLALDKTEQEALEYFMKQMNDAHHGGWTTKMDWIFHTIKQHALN

[7] = biological target: Phosphatidylinositol 4,5-bisphosphate 3-kinase catalytic subunit gamma isoform (Homo sapiens, UniProt P48736)
Phosphatidylinositol 4,5-bisphosphate 3-kinase catalytic subunit gamma isoform, sequence (P48736 whole entry, canonical isoform): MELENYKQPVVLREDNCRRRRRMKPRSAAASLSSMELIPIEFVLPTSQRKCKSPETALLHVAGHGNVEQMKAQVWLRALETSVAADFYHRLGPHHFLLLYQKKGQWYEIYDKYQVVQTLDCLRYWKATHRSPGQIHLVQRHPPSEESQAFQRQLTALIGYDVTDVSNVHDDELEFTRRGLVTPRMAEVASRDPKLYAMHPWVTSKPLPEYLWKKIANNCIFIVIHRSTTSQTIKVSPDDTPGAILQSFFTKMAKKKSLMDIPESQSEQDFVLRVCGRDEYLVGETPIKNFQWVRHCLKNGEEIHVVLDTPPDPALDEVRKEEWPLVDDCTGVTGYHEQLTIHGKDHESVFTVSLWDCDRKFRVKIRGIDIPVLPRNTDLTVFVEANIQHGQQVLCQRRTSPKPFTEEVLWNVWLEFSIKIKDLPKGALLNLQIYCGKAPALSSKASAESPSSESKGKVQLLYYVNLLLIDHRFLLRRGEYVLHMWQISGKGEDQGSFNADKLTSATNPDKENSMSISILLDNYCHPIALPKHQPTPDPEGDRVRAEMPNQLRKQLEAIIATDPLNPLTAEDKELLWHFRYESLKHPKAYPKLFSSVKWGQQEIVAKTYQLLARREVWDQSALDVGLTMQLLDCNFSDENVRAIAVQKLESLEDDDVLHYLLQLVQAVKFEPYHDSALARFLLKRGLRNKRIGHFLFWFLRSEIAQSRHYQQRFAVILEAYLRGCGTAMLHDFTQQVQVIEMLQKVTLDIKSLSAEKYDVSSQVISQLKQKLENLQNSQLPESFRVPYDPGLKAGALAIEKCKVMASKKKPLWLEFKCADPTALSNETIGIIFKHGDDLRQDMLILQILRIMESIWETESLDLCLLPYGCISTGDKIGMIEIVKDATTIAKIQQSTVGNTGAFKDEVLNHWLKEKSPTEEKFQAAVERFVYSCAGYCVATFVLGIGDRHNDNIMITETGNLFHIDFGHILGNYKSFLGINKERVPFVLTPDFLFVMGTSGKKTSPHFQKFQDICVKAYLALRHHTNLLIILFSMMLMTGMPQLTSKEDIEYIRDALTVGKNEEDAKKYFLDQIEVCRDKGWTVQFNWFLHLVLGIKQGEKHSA
Description: Inhibition of recombinant human full-length His-tagged PI3K p110gamma expressed in baculovirus expression system using PIP2 as substrate measured after 80 mins by transcreener fluorescence polarization assay

[8] = biological target: T2, Phosphatidylinositol 4,5-bisphosphate 3-kinase catalytic subunit delta isoform (Homo sapiens, UniProt O00329); experiment: Inhibition of PI3Kdelta in human Ramos cells assessed as reduction in antihuman IgM-stimulated AKT phosphorylation at Ser473 residue preincubated for 60 mins followed by antihuman IgM stimulation and measured after 15 mins; assay type: cell-based
T2 sequence (O00329 whole entry): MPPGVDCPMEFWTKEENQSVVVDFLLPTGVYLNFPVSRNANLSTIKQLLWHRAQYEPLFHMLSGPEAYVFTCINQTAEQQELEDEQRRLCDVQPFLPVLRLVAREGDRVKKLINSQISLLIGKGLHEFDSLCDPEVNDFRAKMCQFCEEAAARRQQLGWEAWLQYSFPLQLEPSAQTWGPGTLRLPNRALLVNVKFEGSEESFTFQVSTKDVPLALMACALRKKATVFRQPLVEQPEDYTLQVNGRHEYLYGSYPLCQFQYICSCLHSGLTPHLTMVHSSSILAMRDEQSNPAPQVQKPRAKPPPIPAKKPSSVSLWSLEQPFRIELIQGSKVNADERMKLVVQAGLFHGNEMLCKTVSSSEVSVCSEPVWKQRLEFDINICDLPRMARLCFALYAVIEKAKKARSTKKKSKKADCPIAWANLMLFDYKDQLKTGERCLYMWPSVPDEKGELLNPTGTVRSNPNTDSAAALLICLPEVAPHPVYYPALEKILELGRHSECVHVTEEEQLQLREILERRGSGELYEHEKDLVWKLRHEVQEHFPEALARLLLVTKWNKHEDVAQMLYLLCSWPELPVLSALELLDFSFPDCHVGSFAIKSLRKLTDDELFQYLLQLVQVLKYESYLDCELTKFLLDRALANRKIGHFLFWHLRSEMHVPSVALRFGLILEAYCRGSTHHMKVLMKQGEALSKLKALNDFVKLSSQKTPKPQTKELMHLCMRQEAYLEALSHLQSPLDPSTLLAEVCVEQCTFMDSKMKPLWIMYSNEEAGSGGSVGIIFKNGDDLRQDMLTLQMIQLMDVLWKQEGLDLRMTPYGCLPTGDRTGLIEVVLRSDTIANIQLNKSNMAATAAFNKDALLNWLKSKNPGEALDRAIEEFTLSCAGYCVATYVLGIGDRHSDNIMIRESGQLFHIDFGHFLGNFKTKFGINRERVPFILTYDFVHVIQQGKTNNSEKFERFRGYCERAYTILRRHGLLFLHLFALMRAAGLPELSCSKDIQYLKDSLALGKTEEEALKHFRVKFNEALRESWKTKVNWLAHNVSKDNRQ

[9] = biological target: T1, PI3K p110 beta/p85 alpha; experiment: Inhibition of N-terminal His6-tagged recombinant full length human p110beta/untagged recombinant full length human p85alpha expressed in baculovirus infected Sf21 insect cells using PIP2 as substrate measured after 80 mins by transcreener fluorescence polarization assay
[10] = biological target: PI3-kinase p110-delta/p85-alpha (Homo sapiens, UniProt O00329); experiment: biochemical
PI3-kinase p110-delta/p85-alpha, sequence (P27986 whole entry, one chain of several): as the sequence (P27986 whole entry) above
Description: Inhibition of N-terminal His6-tagged recombinant full length human p110delta/untagged recombinant full length human p85alpha expressed in baculovirus infected Sf21 insect cells using PIP2 as substrate measured after 80 mins by transcreener fluorescence polarization assay

[11] = Clearance in Sprague-Dawley rat at 2.5 mg/kg, iv by LC-MS/MS analysis; assay type: ADME, organism-based; conditions: in vivo
[12] = test system: Rattus norvegicus; experiment: Inhibition of KC/GRO-induced neutrophil migration in Wistar rat air pouch model at 10 mg/kg, po pretreated for 0.5 hrs followed by KC/GRO-stimulation and measured after 4 hrs by flow cytometry relative to control; assay type: functional
[13] = Cmax in Sprague-Dawley rat at 10 mg/kg, po by LC-MS/MS analysis; assay type: ADME, organism-based; parameters: dose 10 mg/kg, route oral; conditions: in vivo
[14] = biological target: T2, Phosphatidylinositol 4,5-bisphosphate 3-kinase catalytic subunit delta isoform; experiment: Inhibition of PI3Kdelta in human whole blood assessed as reduction in fMLP-stimulated CD63 expression in basophils preincubated for 30 mins followed by fMLP stimulation; assay type: tissue-based
[15] = AUC in Beagle dog at 5 mg/kg, po by LC-MS/MS analysis; assay type: ADME, organism-based, Canis lupus familiaris; conditions: in vivo
[16] = test system: Rattus norvegicus; experiment: Antiarthritic activity in po dosed type2 collagen-induced Wistar rat arthritis model assessed as reduction in hind paw volume administered twice daily for 7 days and measured daily during compound dosing by plethysmometry; assay type: functional; conditions: 168 h
[17] = Half life in Sprague-Dawley rat at 2.5 mg/kg, iv by LC-MS/MS analysis; assay type: ADME, organism-based; conditions: in vivo
[18] = AUC in Sprague-Dawley rat at 2.5 mg/kg, iv by LC-MS/MS analysis; assay type: ADME, organism-based; conditions: in vivo
[19] = Half life in Beagle dog at 1 mg/kg, iv by LC-MS/MS analysis; assay type: ADME, organism-based, Canis lupus familiaris; conditions: in vivo
[20] = Oral bioavailability in Beagle dog at 5 mg/kg by LC-MS/MS analysis; assay type: ADME, organism-based, Canis lupus familiaris; conditions: in vivo
[21] = AUC in Sprague-Dawley rat at 10 mg/kg, po by LC-MS/MS analysis; assay type: ADME, organism-based; conditions: in vivo
[22] = test system: Rattus norvegicus; experiment: Ex vivo inhibition of anti-IgD-induced B cell activation in Wistar rat assessed as CD86 expression at 1 mg/kg, po pretreated for 2 hrs followed by anti-IgD stimulation and measured after overnight incubation by flow cytometry relative to control; assay type: functional
[23] = biological target: T2, Phosphatidylinositol 4,5-bisphosphate 3-kinase catalytic subunit delta isoform; experiment: Inhibition of PI3Kdelta in human whole blood assessed as reduction in anti-IgM-stimulated CD69 expression on B-cells preincubated for 60 mins followed by anti-IgM stimulation and measured after overnight incubation by flow cytometry; assay type: tissue-based
[24] = Clearance in Beagle dog at 1 mg/kg, iv by LC-MS/MS analysis; assay type: ADME, organism-based, Canis lupus familiaris; conditions: in vivo
[25] = AUC in Beagle dog at 1 mg/kg, iv by LC-MS/MS analysis; assay type: ADME, organism-based, Canis lupus familiaris; conditions: in vivo
[26] = Oral bioavailability in Sprague-Dawley rat at 10 mg/kg by LC-MS/MS analysis; assay type: ADME, organism-based; conditions: in vivo
[27] = Cmax in Beagle dog at 5 mg/kg, po by LC-MS/MS analysis; assay type: ADME, organism-based, Canis lupus familiaris; parameters: dose 5 mg/kg, route oral; conditions: in vivo
[28] = Volume of distribution at steady state in Beagle dog at 1 mg/kg, iv by LC-MS/MS analysis; assay type: ADME, organism-based, Canis lupus familiaris; conditions: in vivo, read-out: Vdss

remaining at 0.5 h, 1 µM [1]: 38.7%
Structure (SMILES): N#Cc1c[nH]c2ncnc(N3CCC[C@H]3c3nn4ccc(Cl)c4c(=O)n3-c3ccccc3)c12

inhibition at 1 µM [2]: 52.9% | remaining at 0.5 h, 1 µM [1]: 51.8%
Structure (SMILES): O=c1c2c(F)ccn2nc([C@@H]2CCCN2c2ncnc3[nH]cnc23)n1-c1ccccc1

IC50 [3]: 25 nM | IC50 [4]: 2 nM
Structure (SMILES): C[C@H](Nc1ncnc2nc[nH]c12)c1cc2cccc(Cl)c2c(=O)n1-c1ccccc1 [DUVELISIB]

remaining at 0.5 h, 1 µM [1]: 41.4% | remaining at 0.5 h, 1 µM [5]: 17.9%
Structure (SMILES): CC(=O)c1c[nH]c2ncnc(N3CCC[C@H]3c3nn4ccc(Cl)c4c(=O)n3-c3ccccc3)c12

inhibition at 1 µM [2]: 18.5% | inhibition at 1 µM [6]: -1.5% | remaining at 0.5 h, 1 µM [1]: 78.5% | remaining at 0.5 h, 1 µM [5]: 95.4%
Structure (SMILES): O=c1c2c(Cl)ccn2nc([C@@H]2CCN2c2ncnc3[nH]cnc23)n1-c1ccccc1

inhibition at 1 µM [6]: -0.3% | IC50 [3]: 152 nM | remaining at 0.5 h, 1 µM [1]: 63.9% | IC50 [7]: 34 nM | IC50 [8]: 21 nM | IC50 [9]: 945 nM | IC50 [10]: 13 nM | remaining at 0.5 h, 1 µM [5]: 89.8%
Structure (SMILES): N#Cc1c[nH]c2ncnc(N3CC[C@H]3c3nn4ccc(Cl)c4c(=O)n3-c3ccccc3)c12

IC50 [3]: 42 nM | remaining at 0.5 h, 1 µM [1]: 26.1% | IC50 [8]: 5 nM | remaining at 0.5 h, 1 µM [5]: 25.1%
Structure (SMILES): CC(=O)c1c[nH]c2ncnc(N3CCC[C@H]3c3nn4ccc(F)c4c(=O)n3-c3ccccc3)c12

remaining at 0.5 h, 1 µM [1]: 60.4% | remaining at 0.5 h, 1 µM [5]: 20.1%
Structure (SMILES): CC(=O)c1c[nH]c2ncnc(N3C[C@@H](F)C[C@H]3c3nn4ccc(Cl)c4c(=O)n3-c3ccccc3)c12

clearance [11]: 12.7 mL/min/kg | Cmax [13]: 2730 ng/mL | IC50 [14]: 337 nM | AUC [15]: 13100 ng·h/mL | IC50 [4]: 44 nM | half-life [17]: 1.5 h | AUC [18]: 3270 ng·h/mL | half-life [19]: 6.3 h | IC50 [9]: 590 nM | IC50 [10]: 5 nM | bioavailability [20]: 82.4% | AUC [21]: 14300 ng·h/mL | IC50 [23]: 63 nM | clearance [24]: 5.4 mL/min/kg | AUC [25]: 3260 ng·h/mL | bioavailability [26]: 108% | Cmax [27]: 2530 ng/mL | Vd [28]: 1.7 L/kg
Structure (SMILES): CC(=O)c1cnc(N)nc1N1CC[C@H]1c1nn2ccc(Cl)c2c(=O)n1-c1ccccc1
inhibition in vivo at 10 mg/kg [12]: 87.9% | ED50 [16]: 0.25 mg/kg | inhibition in vivo at 1 mg/kg [22]: 88.3%

remaining at 0.5 h, 1 µM [1]: 38.8% | remaining at 0.5 h, 1 µM [5]: 72.6%
Structure (SMILES): O=c1c2c(Cl)ccn2nc([C@@H]2CCCN2c2ncnc3[nH]cnc23)n1-c1ccccc1

inhibition at 1 µM [2]: 37% | inhibition at 1 µM [6]: < 50% | IC50 [3]: 241 nM | remaining at 0.5 h, 1 µM [1]: 77.5% | IC50 [8]: 16 nM | remaining at 0.5 h, 1 µM [5]: 71.2%
Structure (SMILES): N#Cc1cnc(N)nc1N1CC[C@H]1c1nn2ccc(Cl)c2c(=O)n1-c1ccccc1
